These molecules were tested against T1, P70S6K (T412E mutant, Millipore) (Homo sapiens, UniProt P23443, T412E) (assay: P70S6K Enzyme Assay). Settings: 3 nM enzyme, 24 μM ATP, 1 μM FITC-AHA-[…]-OH substrate peptide, 90 min at 25° C., Caliper Lab Chip 3000.
T1 construct: purchased Millipore
Type: biochemical
Description: P70S6K inhibitor compounds are diluted and plated in 96 well plates. […] The reaction is incubated for 90 min at 25° C., before the addition of 10 mM EDTA to stop the reaction. The proportion of substrate and product (phosphorylated) peptide is analysed on a Caliper Life Sciences Lab Chip 3000, using a pressure of −1.4 psi, and upstream and downstream voltages of −3000 and −700 respectively. Product peaks are resolved before substrate peaks on the resulting chromatograms.

T1 sequence (P23443 whole entry T412E): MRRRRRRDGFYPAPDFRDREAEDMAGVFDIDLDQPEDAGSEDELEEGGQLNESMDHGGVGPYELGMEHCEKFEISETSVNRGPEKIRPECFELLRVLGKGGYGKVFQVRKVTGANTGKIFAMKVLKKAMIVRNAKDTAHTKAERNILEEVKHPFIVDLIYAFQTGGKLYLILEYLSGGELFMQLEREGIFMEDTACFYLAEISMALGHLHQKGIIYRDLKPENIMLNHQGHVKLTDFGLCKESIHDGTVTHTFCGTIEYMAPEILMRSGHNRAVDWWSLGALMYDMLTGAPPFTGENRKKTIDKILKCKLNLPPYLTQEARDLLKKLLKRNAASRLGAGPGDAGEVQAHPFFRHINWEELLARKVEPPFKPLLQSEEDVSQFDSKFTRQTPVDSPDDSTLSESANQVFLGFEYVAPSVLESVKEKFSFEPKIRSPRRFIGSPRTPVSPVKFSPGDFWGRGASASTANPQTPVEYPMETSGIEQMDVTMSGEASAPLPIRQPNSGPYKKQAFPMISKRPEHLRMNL

SMILES | IC50 [nM]
CNC[C@@H](Nc1nc(C)nc2c(C(N)=O)cccc12)c1ccccc1 [Example 26, 2-Methyl-4-{[(1S)-2-(methylamino)-1-phenylethyl]amino}quinazoline-8-carboxamide] | 6.46
Cc1nc(N[C@H](CN2CCC2)c2ccccc2)c2cccc(C(N)=O)c2n1 [Example 29] | 5.84
CCc1nc(N[C@H](CN2CCC2)c2ccccc2)c2cccc(C(N)=O)c2n1 [Example 30] | 33.6
CNC[C@@H](Nc1nc(C)nc2c(C(N)=O)cccc12)c1ccc(OC(F)(F)F)c(Cl)c1 [Example 52] | 1
CCc1nc(N[C@H](CN2CCC2)c2ccc(F)cc2)c2cccc(C(N)=O)c2n1 [Example 36] | 30
CCc1nc(N[C@H](CNC)c2cccc(F)c2)c2cccc(C(N)=O)c2n1 [Example 20, 2-Ethyl-4-{[(1S)-1-(3-fluorophenyl)-2-(methylamino)ethyl]amino}quinazoline-8-carboxamide] | 1.97
CCc1nc(N[C@H](CNC)c2cccc(F)c2Cl)c2cccc(C(N)=O)c2n1 [Example 60, (S)-4-((1-(2-chloro-3-fluorophenyl)-2-(methylamino)ethyl)amino)-2-ethylquinazoline-8-carboxamide] | 9
CNC[C@@H](Nc1nc(C)nc2c(C(N)=O)cccc12)c1ccc(F)cc1C(F)(F)F [Example 50, 4-[(1S)-1-[4-fluoro-2-(trifluoromethyl)phenyl]-2-(methylamino)ethyl]amino-2-methylquinazoline-8-carboxamide] | 260
CNC[C@@H](Nc1nc(C(C)C)nc2c(C(N)=O)cccc12)c1ccc(Cl)cc1 [Example 18, 4-{[(1S)-1-(4-chlorophenyl)-2-(methylamino)ethyl]amino}-2-isopropylquinazoline-8-carboxamide] | 23
CNC[C@@H](Nc1nc(C)nc2c(C(N)=O)cccc12)c1cccc(F)c1 [Example 17, 4-{[(1S)-1-(3-fluorophenyl)-2-(methylamino)ethyl]amino}-2-methylquinazoline-8-carboxamide] | 139
CCc1nc(N[C@H](CN2CCC2)c2ccc(Cl)cc2)c2cccc(C(N)=O)c2n1 [Example 32] | 5.5
CCc1nc(N[C@H](CN2CCC2)c2cccc(F)c2)c2cccc(C(N)=O)c2n1 [Example 28] | 18.5
Cc1nc(N[C@H](CN2CCC2)c2ccc(Cl)cc2)c2cccc(C(N)=O)c2n1 [Example 31] | 2.6
CCc1nc(N[C@H](CNC)c2ccccc2)c2cccc(C(N)=O)c2n1 [Example 23, 2-Ethyl-4-{[(1S)-2-(methylamino)-1-phenylethyl]amino}quinazoline-8-carboxamide] | 11
CNC[C@@H](Nc1nc(C)nc2c(C(N)=O)cccc12)c1ccc(F)cc1F [Example 54] | 7
CNC[C@@H](Nc1nc(C)nc2c(C(N)=O)cccc12)c1cc(F)ccc1OC [Example 47, 4-[(S)-1-(5-Fluoro-2-methoxy-phenyl)-2-methylamino-ethylamino]-2-methyl-quinazoline-8-carboxylic acid amide] | 12

SMILES | IC50 [nM]
CNC[C@@H](Nc1nc(C)nc2c(C(N)=O)cccc12)c1c(F)cccc1F [Example 55] | 6
CNC[C@@H](Nc1nc(C)nc2c(C(N)=O)cccc12)c1ccc(C(F)(F)F)cc1 [Example 48, 2-Methyl-4-[(S)-2-methylamino-1-(4-trifluoromethyl-phenyl)-ethylamino]-quinazoline-8-carboxylic acid amide] | 1
NC[C@@H](Nc1nc(C(F)(F)F)nc2c(C(N)=O)cccc12)c1ccccc1 [Example 51, 4-((S)-2-Amino-1-phenyl-ethylamino)-2-trifluoromethyl-quinazoline-8-carboxylic acid amide] | 8
CCc1nc(N[C@H](CNC)c2cccc(Cl)c2)c2cccc(C(N)=O)c2n1 [Example 21, 4-{[(1S)-1-(3-Chlorophenyl)-2-(methylamino)ethyl]amino}-2-ethylquinazoline-8-carboxamide] | 0.87
CNC[C@@H](Nc1nc(C)nc2c(C(N)=O)cccc12)c1cc(F)c(F)cc1F [Example 56, (S)-2-methyl-4-((2-(methylamino)-1-(2,4,5-trifluorophenyl)ethyl)amino)quinazoline-8-carboxamide] | 1
CCc1nc(N[C@H](CNC)c2ccc(Cl)cc2)c2cccc(C(N)=O)c2n1 [Example 24, 4-{[(1S)-1-(4-Chlorophenyl)-2-(methylamino)ethyl]amino}-2-ethylquinazoline-8-carboxamide] | 1.4
Cc1nc(N[C@H](CN2CCC2)c2cccc(F)c2)c2cccc(C(N)=O)c2n1 [Example 34] | 7
CNC[C@@H](Nc1nc(C)nc2c(C(N)=O)cccc12)c1ccc(Cl)cc1 [Example 19, 4-{[(1S)-1-(4-chlorophenyl)-2-(methylamino)ethyl]amino}-2-methylquinazoline-8-carboxamide] | 0.83
Cc1nc(N[C@H](CN2CCC2)c2ccc(F)cc2)c2cccc(C(N)=O)c2n1 [Example 33] | 44
CNC[C@@H](Nc1nc(C)nc2c(C(N)=O)cccc12)c1cc(F)ccc1F [Example 53] | 3
CNC[C@@H](Nc1nc(C)nc2c(C(N)=O)cccc12)c1ccc(Cl)c(Cl)c1 [Example 61] | 330
CNC[C@@H](Nc1nc(C(F)(F)F)nc2c(C(N)=O)cccc12)c1cccc(F)c1 [Example 27, 4-{[(1S)-1-(3-Fluorophenyl)-2-(methylamino)ethyl]amino}-2-(trifluoromethyl)-quinazoline-8-carboxamide] | 4.3
Cc1nc(N[C@@H](Cc2ccccc2)CN(C)C)c2cccc(C(N)=O)c2n1 [Example 49, 4-((S)-1-Benzyl-2-dimethylamino-ethylamino)-2-methyl-quinazoline-8-carboxylic acid amide] | 452
CNC[C@@H](Nc1nc(C)nc2c(C(N)=O)cccc12)c1cccc(Cl)c1 [Example 22, 4-{[(1S)-1-(3-Chlorophenyl)-2-(methylamino)ethyl]amino}-2-methylquinazoline-8-carboxamide] | 0.98
CNC[C@@H](Nc1nc(C)nc2c(C(N)=O)cccc12)c1ccc(F)cc1 [Example 16, 4-{[(1S)-1-(4-fluorophenyl)-2-(methylamino)ethyl]amino}-2-methylquinazoline-8-carboxamide] | 2.8

Source: US8710044B2, “Bicyclic azaheterocyclic carboxamides” (Merck Patent GmbH, priority 2010, dated 2014)
